{"source": "patent US20100197789A1", "about": "“ANTI-OBESITY AGENT AND USE THEREOF” (National University Corporation Nagoya University, priority 2006, published 2010)", "assay_type_in_all_cases": "in vivo, mouse", "key": {"db/^+m mice": {"system": "db/^+m mice", "assay": "Food intake amount and body weight, 5 week-continuous oral administration, non-obese db/+m mice", "settings": "(±)-baclofen 2.7 mg/dl in drinking water, 5 weeks", "description": "5 week-old male C57BL/KsJ-db/^+m mice (db/^+m mice: body weight 19 to 23 g, Japan SLC, Inc.) were purchased and individually fed in tip cages. To the db/^+m mice, normal pellet diet (CE-2) was administered under free water intake and free food intake. A body weight and a food intake amount over 24 hours were measured every day from the start of feeding. On day 3 after the start of feeding, blood was taken from an orbit after 6 hour-fasting and a blood glucose level and a blood insulin concentration were measured. The db/^+m mice were divided into two groups (10 mice per each group) so that a body weight, a 24 hour-food intake amount, a blood glucose level, and a blood insulin concentration were equal, and defined to be a control group and a baclofen treated group. After division into the groups, from day 5 after the start of feeding, (±)-baclofen was dissolved in drinking water and 5 week-continuous oral administration was started in the baclofen treated group. (±)-baclofen was dissolved in drinking water at a concentration of 2.7 mg/dl used in the high concentration treated group in the experiment of db/db mice. A food intake amount and a body weight of the db/^+m mice were measured over time, and a rectal temperature was measured 5 weeks after the start of the administration. Blood was taken after the 5-week administration of (±)-baclofen, and the db/^+m mice were sacrificed by cervical luxation.\n5 week-old male C57BL/KsJ-db/db mice (db/db mice: body weight 19 to 25 g, Japan SLC, Inc.) were purchased and individually fed in tip cages. Normal pellet diet (CE-2) was administered to the db/db mice under free water intake and free food intake. A body weight and a food intake amount over 24 hours were measured every day from the start of feeding. On day 3 after the start of feeding, blood was taken from an orbit after 6 hour-fasting and a blood glucose level and a blood insulin concentration were measured. The db/db mice were divided into three groups (10 mice per each group) so that a body weight, a 24 hour-food intake amount, a blood glucose level, and a blood insulin concentration were equal and defined to be a control group, an SKF97541 treated group and a 3-APPA treated group. SKF97541 and 3-APPA were dissolved in drinking water at respective concentrations of 10×10^−6 M and 100×10^−6 M, and continuously orally administered for 5 weeks, and a food intake amount and a body weight were measured over time during the administration period. SKF97541 (10×10^−6 M) or 3-APPA (100×10^−6M) was dissolved in drinking water and orally administered also to db/^+m mice, and a food intake amount and a body weight were measured over time in the same manner."}, "DIO mice": {"system": "DIO mice", "assay": "Food intake amount and body weight, 5 week-continuous oral administration, diet-induced obese (DIO) mice", "settings": "(±)-baclofen 5 mg/kg/day, SKF97541 0.3 mg/kg/day, 3-APPA 5 mg/kg/day", "description": "5 week-old male C57BL/6N mice (body weight 17 to 20 g, CLEA Japan, Inc.) were purchased and individually fed in tip cages. To the mice, normal pellet diet (CE-2) was administered under free water intake and free food intake. A body weight and a food intake amount over 24 hours were measured every day from the start of feeding. On day 3 after the start of feeding, blood was taken from an orbit after 6 hour-fasting and a blood glucose level and a blood insulin concentration were measured. The mice were divided into a control group and a baclofen treated group (10 mice per each group) so that a body weight, a 24 hour-food intake amount, a blood glucose level, and a blood insulin concentration were equal, and diet induced-obesity (DIO) was started to be induced by administration of high fat diet (High Fat Diet 32, energy fat ratio 60%, CLEA Japan, Inc.) (DIO mice). At the same time as the start of administering the high fat diet, (±)-baclofen was dissolved in drinking water and 5 week-continuous oral administration was started in a dosage of 5 mg per 1 kg of a body weight in 1 day (5 mg/kg/day). A food intake amount and a body weight were measured over time during the 5 week-administration period. (±)-baclofen (5 mg/kg/day) was orally administered also to C57BL/6N mice (lean mice) that are non-obese mice to which normal diet was administered in the same manner as described above, and a food intake amount and a body weight were measured over time.\n5 week-old male C57BL/6N mice (body weight 17 to 20 g, CLEA Japan, Inc.) were purchased and individually fed in tip cages. Normal pellet diet (CE-2) was administered to the mice under free water intake and free food intake. A body weight and a food intake amount over 24 hours were measured every day from the start of feeding. On day 3 after the start of feeding, blood was taken from an orbit after 6 hour-fasting and a blood glucose level and a blood insulin concentration were measured. The mice were divided into a control group, an SKF97541 treated group and a 3-APPA treated group (10 mice per each group) so that a body weight, a 24 hour-food intake amount, a blood glucose level, and a blood insulin concentration were equal, and diet induced-obesity (DIO) was started to be induced by administration of high fat diet (High Fat Diet 32, energy fat ratio 60%, CLEA Japan, Inc.) (DIO mice). At the same time as the start of administering the high fat diet, SKF97541 (0.3 mg/kg/day) or 3-APPA (5 mg/kg/day) was dissolved in drinking water and 5 week-continuous oral administration was started. A food intake amount and a body weight were measured over time during the 5 week-administration period. SKF97541 (0.3 mg/kg/day) or 3-APPA (5 mg/kg/day) was orally administered also to C57BL/6N mice (lean mice) to which normal diet was administered in the same manner as described above, and a food intake amount and a body weight were measured over time."}, "NPY mRNA": {"system": "NPY mRNA", "assay": "In situ hybridization, NPY mRNA in hypothalamic arcuate nucleus, DIO mice", "settings": "(±)-baclofen oral 5 weeks", "description": "A hypothalamic section with a thickness of 12 μm was prepared from the brain preserved at −80° C. by using a cryostat and stuck to a MAS coat slide and then in situ hybridization was performed. For a label of NPY mRNA and POMC mRNA probes, ^35S was used. The hypothalamic section was pretreated by using triethanolamine, ethanol and the like, and then 12 hour-hybridization was performed at 55° C. After the hybridization, the hypothalamic section was treated by washing with SSC, RNase, etc. After development to a film, the mRNA expression strength was assayed by using the NIH image.\n(±)-baclofen was orally administered to DIO mice for 5 weeks according to the above method, and then the DIO mice were sacrificed. A brain was surgically removed, and changes in expression amounts of NPY mRNA and POMC mRNA in the hypothalamic arcuate nucleus were examined by using an in situ hybridization method."}, "[1]": {"settings": "DIO mice (high fat diet), oral in drinking water 5 weeks"}, "[2]": {"settings": "DIO mice, continued until 5 weeks"}}}
{"molecule": "NCC(CC(=O)O)c1ccc(Cl)cc1", "note": "(racemic) [(±)-baclofen, (RS)-4-amino-3-(4-chlorophenyl)butanoic acid]", "values": [{"measurement": "body weight", "setting": "db/^+m mice", "result": "did not give significant effects"}, {"measurement": "food intake amount", "setting": "db/^+m mice", "result": "did not give significant effects"}, {"measurement": "body weight increase", "setting": "DIO mice; [1]", "result": "significantly suppressed"}, {"measurement": "food intake amount", "setting": "DIO mice; [1]", "result": "significantly suppressed"}, {"measurement": "time after start of administration from which body weight increase suppression was significant", "setting": "DIO mice; [2]", "result": 1, "unit": "week"}, {"measurement": "time after start of administration from which food intake suppression was significant", "setting": "DIO mice; [2]", "result": 1, "unit": "week"}, {"measurement": "expression of NPY mRNA in the hypothalamic arcuate nucleus", "setting": "NPY mRNA", "result": "significantly suppressed"}]}
